From US10329542B2, “HBV RNAse H purification and enzyme inhibitors” (Saint Louis University, priority 2012, dated 2019)

Test system: HBV genotype D
Assay: HBV replication inhibition in Huh7 cells, Southern blot, genotype D
Assay type: cell-based, Hepatitis B virus
Settings: 10 μM
Description: Huh7 cells were maintained in Dulbecco's modified Eagle's medium with 10% fetal bovine serum at 37° C. in 5% CO2. Cells were seeded into 60 mm dishes and transfected at 70% confluency with 2.6 μg of plasmids using TransIT-LT1 (Mirus, Inc.). Test compounds were added the morning following transfection at 10 or 50 μM, and fresh medium containing the compounds was provided every 1-2 days. Four or five days post-transfection HBV cores were isolated by lysis of the cells in 10 mM Tris pH 7.5, 1 mM EDTA, 0.25% NP40, 50 mM NaCl, and 8% sucrose followed by sedimentation through a 30% sucrose cushion as described (Travis, et al., 1998). […] The nucleic acid samples were resolved by electrophoresis on 1.2% agarose gels and detected by Southern blotting with ^32P-labeled HBV DNA as a probe.
Finally, the inventors asked whether HBV RNAseH inhibitors could block HBV replication in culture. […] Replicate nucleic acid aliquots were mock treated or treated with DNAse-free E. coli RNAseH to destroy RNA:DNA heteroduplexes, and then HBV DNAs were detected by Southern blotting. […]
Inhibition of HBV replication by βTJ was measured as recently described (Tavis et al., 2013). […] The nucleic acids were resolved by electrophoresis on 1.2% agarose gels and HBV DNAs were detected by Southern blotting with ^32P-labeled double-stranded HBV DNA as a probe to detect both the plus- and minus-polarity HBV DNA strands. […]

In the case of `NCc1ccc(-c2ccc(Cc3cc(=O)n(O)c4ncccc34)cc2)cc1` [Compound 12, napthyridinone], the “Inhibition of HBV replication, genotype D isolate” value is reported as “Very few of the most slowly-migrating double-stranded nucleic acids accumulated”.
